Key:
[1] = target: T1, MEKK2 (Homo sapiens, UniProt Q9Y2U5); assay: MEKK2 intrinsic ATPase activity assay; format: biochemical; conditions: for inhibition at 1 µM: read-out: Inhibition in MEKK2 intrinsic ATPase assay screen (hit criterion)
T1 sequence (Q9Y2U5 1-619): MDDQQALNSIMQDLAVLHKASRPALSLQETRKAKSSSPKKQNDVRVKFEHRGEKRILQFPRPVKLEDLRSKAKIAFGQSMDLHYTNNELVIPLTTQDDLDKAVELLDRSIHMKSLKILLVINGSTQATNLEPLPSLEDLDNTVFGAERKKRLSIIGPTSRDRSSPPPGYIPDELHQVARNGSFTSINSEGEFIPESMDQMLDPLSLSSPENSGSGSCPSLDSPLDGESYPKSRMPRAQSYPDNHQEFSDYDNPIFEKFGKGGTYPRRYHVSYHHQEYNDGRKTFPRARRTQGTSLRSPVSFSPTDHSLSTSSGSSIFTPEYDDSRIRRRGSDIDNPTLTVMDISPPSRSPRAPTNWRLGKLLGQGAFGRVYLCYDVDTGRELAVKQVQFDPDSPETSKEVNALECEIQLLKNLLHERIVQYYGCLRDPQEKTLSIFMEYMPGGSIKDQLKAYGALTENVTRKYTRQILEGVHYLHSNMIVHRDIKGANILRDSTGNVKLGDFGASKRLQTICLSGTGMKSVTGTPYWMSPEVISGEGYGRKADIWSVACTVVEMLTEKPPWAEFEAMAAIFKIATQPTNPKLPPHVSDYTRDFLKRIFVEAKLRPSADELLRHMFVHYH

[2] = target: T1, MEKK2; assay: MEKK2 transphosphorylation activity assay; format: biochemical; conditions: 2 nM MEKK2, 200 nM MKK6, 3 μM ATP
[3] = target: T1, MEKK2; assay: MEKK2 TR-FRET binding assay; conditions: 5 nM MEKK2, 25 nM kinase tracer 236
[4] = test system: MEKK2; conditions: read-out: Published MEKK2 Binding Assay IC50; TR-FRET binding assay; ref Invitrogen Lanthascreen Eu Kinase Binding Assay for MEKK2 Validation Packet; cited from earlier work
[5] = target: T2, MEKK2 (Homo sapiens, UniProt Q9Y2U5); assay: MEKK2 intrinsic ATPase activity assay; format: biochemical; conditions: MEKK2 from vendor 3 (catalytic domain only)
T2 sequence (Q9Y2U5 357-619): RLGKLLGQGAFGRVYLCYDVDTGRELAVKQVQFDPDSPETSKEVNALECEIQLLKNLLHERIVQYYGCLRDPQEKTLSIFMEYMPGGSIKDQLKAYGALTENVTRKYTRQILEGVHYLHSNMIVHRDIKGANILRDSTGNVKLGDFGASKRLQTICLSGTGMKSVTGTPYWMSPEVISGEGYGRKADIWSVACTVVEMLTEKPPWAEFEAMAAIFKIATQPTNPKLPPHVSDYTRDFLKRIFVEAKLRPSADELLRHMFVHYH

[6] = test system: MEKK2; assay: MEKK2 intrinsic ATPase activity assay; format: biochemical, human; conditions: high compound concentrations
[7] = 10 nM MEKK2 (vendor 1), 30 μM ATP

Row | SMILES | MEKK2 Intrinsic ATPase Assay Hill Slope ± SD [1, 7] | inhibition at 1 µM [1] | Transphosphorylation Assay Hill Slope ± SD [2] | Binding Assay Hill Slope ± SD [3] | IC50 [4] | further results
1 | COc1cc(Nc2c(C#N)cnc3cc(OCCCN4CCN(C)CC4)c(OC)cc23)c(Cl)cc1Cl [Bosutinib] | 1.07 ± 0.09 | ≥ 50% | 1.03 ± 0.21 | 0.93 ± 0.05 | – | –
2 | Cc1nc(Nc2ncc(C(=O)Nc3c(C)cccc3Cl)s2)cc(N2CCN(CCO)CC2)n1 [Dasatinib] | 1.10 ± 0.20 | – | – | – | […] | –
3 | Cc1ccc(Nc2nccc(N(C)c3ccc4c(C)n(C)nc4c3)n2)cc1S(N)(=O)=O [Pazopanib] | 1.06 ± 0.07 | ≥ 50% | – | 1.05 ± 0.03 | – | –
4 | CN[C@@H]1C[C@H]2O[C@@](C)([C@@H]1OC)n1c3ccccc3c3c4c(c5c6ccccc6n2c5c31)C(=O)NC4 [Staurosporine] | – | – | – | – | – | MEKK2 Intrinsic ATPase Assay Hill Slope ± SD ([1]; 1 nM (instead of 10 nM) MEKK2 enzyme): 0.93 ± 0.13
5 | CCN(CC)CCNC(=O)c1c(C)[nH]c(/C=C2\C(=O)Nc3ccc(F)cc32)c1C [Sunitinib] | 1.06 ± 0.16 | – | 0.96 ± 0.15 | 0.89 ± 0.04 | […] | Difference in IC50 values between ATPase and binding assay ([1]; ATPase assay vs TR-FRET binding assay): 2.4 fold; Intrinsic ATPase assay Hill slope ± SD ([1]; MEKK2 from vendor 2): 1.01 ± 0.02; Intrinsic ATPase assay Hill slope ± SD [5]: 1.01 ± 0.05; Inhibition of ATPase activity at high compound concentrations [6]: complete inhibition
6 | Cc1cc(Nc2cc(N3CCN(C)CC3)nc(Sc3ccc(NC(=O)C4CC4)cc3)n2)[nH]n1 [VX-680] | 0.97 ± 0.13 | – | – | – | 2300 nM | –
